Laboratory results from patent publication US20200030347A1, “ANTIMICROBIAL COMPOSITIONS” (Matoke Holdings Limited, priority 2016, published 2020).

Legend:
[1] = tested on: human nasal epithelial cell line; assay: Gene expression by quantitative real-time PCR in nasal epithelial cells; assay type: cell-based; conditions: 1 hour
Protocol: The fold change was calculated based on normalisation to the expression of the endogenous R-actin housekeeping gene. […] The dotted line for y=0 represents the untreated control group to which gene expression in the treatment groups were normalised and compared using an unpaired two tailed T test. *p≤0.05, ** […], *** p≤0.001, **** p≤0.0001; A human nasal epithelial cell line was used to investigate the immediate effect of SurgihoneyRO (also known as Surgihoney) on the integrity and function of the epithelium. In addition, a human mast cell line was used as a representative leukocyte to investigate immunological responses to SurgihoneyRO. Mast cells were selected because of their function as sentinel cells, being located just underneath the epithelium in tissues. Mast cells have close contact to the external environment, for example being found in the nasal mucosa, where they are ideally placed to participate in the early recognition of pathogens—by acting as immune effectors and modulatory cells with an essential role in linking innate and adaptive immunity in the host's defence against pathogens such as bacteria. […] In this case, we treated cells with an appropriate concentration range of pure hydrogen peroxide, from 0-400 uM.

[2] = tested on: human mast cell line (HMC-1); assay: Gene expression by quantitative real-time PCR in mast cells; assay type: cell-based; conditions: 1 hour
Protocol: Gene-expression profiles for Th17 related cytokines were analysed in HMC-1 treated with 10 g/L or 100 g/L of SurgihoneyRO for 5 minutes, 1 hour and 2 hours using quantitative real-time PCR. The fold change was calculated based on normalisation to the expression of the endogenous R-actin housekeeping gene. […] The dotted line for y=0 represents the untreated control group to which gene expression in the treatment groups were normalised and compared using an unpaired two tailed T test. *p≤0.05, ** […], *** p≤0.001, **** p≤0.0001;
A human nasal epithelial cell line was used to investigate the immediate effect of SurgihoneyRO (also known as Surgihoney) on the integrity and function of the epithelium. In addition, a human mast cell line was used as a representative leukocyte to investigate immunological responses to SurgihoneyRO. Mast cells were selected because of their function as sentinel cells, being located just underneath the epithelium in tissues.
We then studied the response of the mast cell line (HMC-1) to SurgihoneyRO treatment.
In this case, we treated cells with an appropriate concentration range of pure hydrogen peroxide, from 0-400 uM.

[3] = 20° C. and 1 atm; cited from earlier work
[4] = tested on: 48 h in vitro NTHi biofilms; assay: NTHi biofilm assay (cfu enumeration); assay type: cell-based, non-typeable Haemophilus influenza; conditions: 300/60 μg·ml; 2 hours
Protocol: Bacterial strains used in this study were isolated from nasopharyngeal swabs of children aged 4 years. NTHi was sub-cultured from frozen stocks onto Colombia agar with chocolated horse blood (Oxoid, UK) and incubated for 18 h at 37° C. and 5% CO2, following which colonies were resuspended in Brain Heart Infusion (BHI) broth supplemented with 10 μg/ml Hemin and 2 μg/ml NAD, and grown to mid-exponential phase for experiments. Pseudomonas aeruginosa PA01 and a clinical methicillin resistant Staphylococcus aureus isolate were subcultured onto Colombia blood agar plates (Oxoid, UK) and grown in non-supplemented BHI. […]
Mid-exponential planktonic cultures were used to inoculate individual wells of untreated 6-well polystyrene plates (˜1.0×10^8 planktonic bacteria per well; Corning Incorporated, USA). Cultures were incubated at 37° C. and 5% CO2 for 48 h, replacing spent media with fresh supplemented BHI (NTHi) at 24 h. Prior to treatment spent media was removed and biofilms washed twice with Hanks' balanced salt solution (HBSS; Gibco, UK). Biofilms were treated with SurgihoneyRO™ or Acacia (both prepared in HBSS) at final concentrations of 7 to 213 g/L. To assess the effect of pH biofilms were treated with HBSS adjusted to pH6.3 (the pH of 71 g/L SurgihoneyRO™ in HBSS). For adjuvant assays biofilms were treated with 300 μg/mL amoxicillin and 60 μg/mL clavulanic acid (Co-amoxiclav). […]

OO [hydrogen peroxide]
IL22 expression, fold change ([1]; 40 μM): 0.90 fold
IL23R expression, fold change ([1]; 40 μM): 0.45 fold
IL22 expression, fold change ([1]; 200 μM): 1.42 fold
IL23R expression, fold change ([1]; 200 μM): 1.20 fold
GATA3 expression, fold increase ([1]; 400 μM): 0.92 fold
IL10 expression, fold change ([1]; 400 μM): 4.63 fold
IL22 expression, fold change ([1]; 400 μM): 4.55 fold
IL23R expression, fold change ([1]; 400 μM): 1.87 fold
MMP9 expression, fold change ([1]; 400 μM): 1.47 fold
RORγC expression, mean increase ([1]; 400 μM): 14.57 fold
IL22 expression, fold change ([2]; 40 μM): 0.60 fold
IL23R expression, fold change ([2]; 40 μM): 0.47 fold
IL22 expression, fold change ([2]; 200 μM): 1.25 fold
IL23R expression, fold change ([2]; 200 μM): 0.58 fold
MMP7 expression, fold increase ([2]; 200 μM): 3.07 fold
IL22 expression, fold change ([2]; 400 μM): 1.81 fold
IL23R expression, fold change ([2]; 400 μM): 1.05 fold
MMP7 expression, fold increase ([2]; 400 μM): 3.31 fold
RORγC expression, mean increase ([2]; 400 μM): 2.83 fold

O=C(CO)[C@@H](O)[C@H](O)[C@H](O)CO [Fructose]
solubility [3]: about 375 g/100 g water

co-amoxiclav
effect on biofilm viability [4]: no effect
